Earlier results in publication PMC7190335 (Science Advances, 2020).

Biological target: T1, COUP-TFII (Homo sapiens, UniProt P24468)
T1 sequence (P24468 1-414): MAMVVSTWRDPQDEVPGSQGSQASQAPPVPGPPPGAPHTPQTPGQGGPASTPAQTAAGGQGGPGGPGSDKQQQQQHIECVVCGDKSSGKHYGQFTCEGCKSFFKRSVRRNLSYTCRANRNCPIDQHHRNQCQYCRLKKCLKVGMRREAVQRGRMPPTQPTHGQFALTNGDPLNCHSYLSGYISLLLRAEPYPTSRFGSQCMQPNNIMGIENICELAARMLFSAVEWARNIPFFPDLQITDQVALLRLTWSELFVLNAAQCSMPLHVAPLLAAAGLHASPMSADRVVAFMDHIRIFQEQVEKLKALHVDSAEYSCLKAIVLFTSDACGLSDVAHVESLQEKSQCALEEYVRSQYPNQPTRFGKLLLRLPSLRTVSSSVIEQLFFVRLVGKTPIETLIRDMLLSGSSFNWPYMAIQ

In the case of COc1ccc(O)c2ccccc12 [4-methoxynaphthol compound, 4-methoxynaphthol], the “concentration needed to reduce COUP-TFII activity” value is given as “up to 100 μM”.
